Experimental data reported in ChEMBL document CHEMBL1201862, “PubChem BioAssay data set” (2004).
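Following 48 hours of exposure in 96-well plates, responses at five concentrations were used to interpolate endpoints linearly. At the GI50, growth is halved.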 The source made the active and inactive calls. Cut-off read from the data, not from the text of the source: active = GI50 up to about 1.1 µM and inactive = higher.

Legend:
Assay in all cases: NCI anticancer screen, dose series, 48 h
[1] = system: NCI-H460
[2] = system: SK-OV-3
[3] = system: K562
[4] = system: Malme-3M
[5] = system: A549
[6] = system: HL-60
[7] = system: OVCAR-8
[8] = system: U-251
[9] = system: SK-MEL-5
[10] = system: SR
[11] = system: 786-0
[12] = system: SNB-78
[13] = system: HCT-15
[14] = system: HOP-62
[15] = system: HOP-18
[16] = system: NCI-H226
[17] = system: NCI-H522
[18] = system: OVCAR-3
[19] = system: SF-268
[20] = system: OVCAR-5
[21] = system: HOP-92
[22] = system: IGROV-1
[23] = system: HCT-116
[24] = system: RXF 393
[25] = system: SN12C
[26] = system: UACC-62
[27] = system: DMS-114
[28] = system: EKVX
[29] = system: M19-MEL
[30] = system: DMS-273
[31] = system: SK-MEL-2
[32] = system: SK-MEL-28
[33] = system: TK-10
[34] = system: SNB-75
[35] = system: UACC-257
[36] = system: DLD-1
[37] = system: HT-29
[38] = system: XF498
[39] = system: ACHN
[40] = system: SF-295
[41] = system: LOX IMVI
[42] = system: OVCAR-4
[43] = system: UO-31
[44] = system: HCC 2998
[45] = system: LXFL 529
[46] = system: RPMI-8226
[47] = system: CCRF-CEM
[48] = system: RXF 631
[49] = system: SF-539
[50] = system: NCI-H23
[51] = system: MOLT-4
[52] = system: COLO 205
[53] = system: KM12
[54] = system: M14
[55] = system: A498
[56] = system: KM-20L2
[57] = system: SNB-19
[58] = system: SW-620
[59] = system: CAKI-1

COc1ccccc1NC(=O)C1=C(C)NC(C)=C(C(=O)Nc2ccccc2OC)C1c1ccccc1[N+](=O)[O-]
GI50 [1]: 16.1 µM (inactive)
GI50 [2]: 26.9 µM (inactive)
GI50 [3]: 20.6 µM (inactive)
GI50 [4]: 13.9 µM (inactive)
GI50 [5]: > 100 µM (inactive)
GI50 [6]: 20.2 µM (inactive)
GI50 [7]: 19.2 µM (inactive)
GI50 [8]: 14.5 µM (inactive)
GI50 [9]: 24.8 µM (inactive)
GI50 [10]: 11.5 µM (inactive)
GI50 [11]: 17.4 µM (inactive)
GI50 [12]: 34.2 µM (inactive)
GI50 [13]: 14.3 µM
GI50 [14]: 33.2 µM (inactive)
GI50 [15]: 29.7 µM (inactive)
GI50 [16]: 15.2 µM (inactive)
GI50 [17]: 13.1 µM (inactive)
GI50 [18]: 18.5 µM (inactive)
GI50 [19]: 19.8 µM (inactive)
GI50 [20]: 41 µM (inactive)
GI50 [21]: 25.6 µM (inactive)
GI50 [22]: 19.7 µM (inactive)
GI50 [23]: > 100 µM (inactive)
GI50 [24]: > 100 µM (inactive)
GI50 [25]: 16.6 µM (inactive)
GI50 [26]: 21.3 µM (inactive)
GI50 [27]: 15 µM (inactive)
GI50 [28]: 64.1 µM (inactive)
GI50 [29]: 18.5 µM (inactive)
GI50 [30]: 17.9 µM (inactive)
GI50 [31]: 11.4 µM (inactive)
GI50 [32]: 17.5 µM (inactive)
GI50 [33]: 22.5 µM (inactive)
GI50 [34]: 42.1 µM (inactive)
GI50 [35]: 19 µM (inactive)
GI50 [36]: 16.9 µM (inactive)
GI50 [37]: 18.7 µM (inactive)
GI50 [38]: 22.2 µM (inactive)
GI50 [39]: 18.6 µM (inactive)
GI50 [40]: 32.4 µM (inactive)
GI50 [41]: 15.5 µM (inactive)
GI50 [42]: 18.9 µM (inactive)
GI50 [43]: 19.4 µM (inactive)
GI50 [44]: 18.7 µM (inactive)
GI50 [45]: 11.7 µM (inactive)
GI50 [46]: 19.1 µM (inactive)
GI50 [47]: 18.9 µM (inactive)
GI50 [48]: 19.6 µM (inactive)
GI50 [49]: 19.6 µM (inactive)
GI50 [50]: 16.8 µM (inactive)
GI50 [51]: 14.3 µM (inactive)
GI50 [52]: 16.9 µM (inactive)
GI50 [53]: 16.8 µM (inactive)
GI50 [54]: 16.1 µM (inactive)

Cc1cc([N+](=O)[O-])c(S(=O)(=O)c2ccccc2)c([N+](=O)[O-])c1
GI50 [1]: 13.4 µM (inactive)
GI50 [2]: 24.8 µM (inactive)
GI50 [3]: 4.08 µM (inactive)
GI50 [4]: 13.6 µM (inactive)
GI50 [5]: 23.6 µM (inactive)
GI50 [6]: 2.82 µM (inactive)
GI50 [7]: 6.9 µM (inactive)
GI50 [8]: 13.5 µM (inactive)
GI50 [9]: 14.2 µM (inactive)
GI50 [10]: 4.59 µM (inactive)
GI50 [11]: 3.95 µM (inactive)
GI50 [12]: 17.2 µM (inactive)
GI50 [13]: 16 µM
GI50 [14]: 21.7 µM (inactive)
GI50 [15]: 16.1 µM (inactive)
GI50 [16]: 12.2 µM (inactive)
GI50 [17]: 1.73 µM (inactive)
GI50 [18]: 5.62 µM (inactive)
GI50 [19]: 13.2 µM (inactive)
GI50 [20]: 18.6 µM (inactive)
GI50 [55]: 18.2 µM (inactive)
GI50 [21]: 2.43 µM (inactive)
GI50 [56]: 17.9 µM (inactive)
GI50 [22]: 12.6 µM (inactive)
GI50 [23]: 9.75 µM (inactive)
GI50 [24]: 2.2 µM (inactive)
GI50 [25]: 4.43 µM (inactive)
GI50 [26]: 7.69 µM (inactive)
GI50 [27]: 3.14 µM (inactive)
GI50 [28]: 24.2 µM (inactive)
GI50 [29]: 11.7 µM (inactive)
GI50 [57]: 18.5 µM (inactive)
GI50 [30]: 12.9 µM (inactive)
GI50 [31]: 20 µM (inactive)
GI50 [32]: 18.9 µM (inactive)
GI50 [33]: 17.9 µM (inactive)
GI50 [58]: 3.95 µM (inactive)
GI50 [34]: 22.5 µM (inactive)
GI50 [35]: 3.52 µM (inactive)
GI50 [36]: 4 µM (inactive)
GI50 [37]: 7.85 µM (inactive)
GI50 [38]: 4.35 µM (inactive)
GI50 [39]: 16.5 µM (inactive)
GI50 [40]: 18.8 µM (inactive)
GI50 [41]: 2.57 µM (inactive)
GI50 [42]: 7.83 µM (inactive)
GI50 [59]: 3.62 µM (inactive)
GI50 [43]: 16.9 µM (inactive)
GI50 [44]: 21.2 µM (inactive)
GI50 [45]: 3.66 µM (inactive)
GI50 [46]: 14.8 µM (inactive)
GI50 [47]: 3.52 µM (inactive)
GI50 [48]: 38.6 µM (inactive)
GI50 [49]: 12.7 µM (inactive)
GI50 [50]: 8.53 µM (inactive)
GI50 [51]: 3.39 µM (inactive)
GI50 [52]: 9.51 µM (inactive)
GI50 [53]: 17.1 µM (inactive)
GI50 [54]: 5.93 µM (inactive)

CN(C)c1ccc2c(c1)C(=O)N(OS(=O)(=O)c1ccc([N+](=O)[O-])cc1)C2=O
GI50 [1]: 49.3 µM (inactive)
GI50 [2]: > 100 µM (inactive)
GI50 [3]: 31.6 µM (inactive)
GI50 [4]: 31.2 µM (inactive)
GI50 [5]: 39.2 µM (inactive)
GI50 [6]: 28.6 µM (inactive)
GI50 [7]: 25.5 µM (inactive)
GI50 [8]: 18.9 µM (inactive)
GI50 [9]: 41.1 µM (inactive)
GI50 [10]: 22.4 µM (inactive)
GI50 [11]: 19.3 µM (inactive)
GI50 [12]: 26.7 µM (inactive)
GI50 [13]: 33.2 µM
GI50 [14]: 37.1 µM (inactive)
GI50 [15]: > 100 µM (inactive)
GI50 [16]: 72.8 µM (inactive)
GI50 [17]: 15 µM (inactive)
GI50 [18]: > 10 µM (inactive)
GI50 [19]: 27.2 µM (inactive)
GI50 [20]: 25.4 µM (inactive)
GI50 [55]: 59.7 µM (inactive)
GI50 [21]: > 10 µM (inactive)
GI50 [22]: 19.7 µM (inactive)
GI50 [23]: > 10 µM (inactive)
GI50 [24]: 13.9 µM (inactive)
GI50 [25]: 22.5 µM (inactive)
GI50 [26]: 17.1 µM (inactive)
GI50 [27]: > 10 µM (inactive)
GI50 [28]: 42.7 µM (inactive)
GI50 [29]: 19 µM (inactive)
GI50 [57]: 41.7 µM (inactive)
GI50 [30]: 19.9 µM (inactive)
GI50 [31]: 29.2 µM (inactive)
GI50 [32]: 26.1 µM (inactive)
GI50 [33]: 59 µM (inactive)
GI50 [58]: 20.4 µM (inactive)
GI50 [34]: 31.6 µM (inactive)
GI50 [35]: 25.6 µM (inactive)
GI50 [36]: 24 µM (inactive)
GI50 [37]: 21.7 µM (inactive)
GI50 [38]: 16.7 µM (inactive)
GI50 [39]: 24.7 µM (inactive)
GI50 [40]: 25.2 µM (inactive)
GI50 [42]: 15.7 µM (inactive)
GI50 [59]: 22.4 µM (inactive)
GI50 [43]: 23.1 µM (inactive)
GI50 [44]: 24.6 µM (inactive)
GI50 [45]: 17.9 µM (inactive)
GI50 [47]: 18.7 µM (inactive)
GI50 [48]: 22.3 µM (inactive)
GI50 [49]: 17.6 µM (inactive)
GI50 [50]: 26.2 µM (inactive)
GI50 [52]: 24.3 µM (inactive)
GI50 [53]: 25.1 µM (inactive)
GI50 [54]: 17.4 µM (inactive)
